In the supplement of paper PMC10307832:

Experiments:
Test in all cases: relative viability (nuclei count vs DMSO), 5 days (fraction); higher = more cells survive
BAM7 + Foretinib = compound: CCOC1=CC=CC=C1N=NC2=C(NN(C2=O)C3=NC(=CS3)C4=CC=CC=C4)C [BAM7] + COc1cc2c(Oc3ccc(NC(=O)C4(C(=O)Nc5ccc(F)cc5)CC4)cc3F)ccnc2cc1OCCCN1CCOCC1 [Foretinib] (partner 0.25 µM)
How it was run: (§1)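 A single step with final 0.05% Triton X-100, 1% formaldehyde and 1 ug/ml Hoechst fixed the cells and stained nuclei 5 days after treatment. Lung cancer cell lines in 1536-well plates had been treated by pin tool the day after seeding with one drug alone or a fixed anchor-drug dose plus five library-drug doses (not always all listed) in √10 steps, and nuclei were counted on 4× images. Relative viability is the ratio of nuclei in treated wells to nuclei in vehicle wells, taken as the median of duplicate plates.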

BAM7 + Lapatinib = compound: CCOC1=CC=CC=C1N=NC2=C(NN(C2=O)C3=NC(=CS3)C4=CC=CC=C4)C [BAM7] + CS(=O)(=O)CCNCc1ccc(-c2ccc3ncnc(Nc4ccc(OCc5cccc(F)c5)c(Cl)c4)c3c2)o1 [Lapatinib] (partner 2 µM)
How it was run: as §1

[1] = compound: CCn1c(-c2nonc2N)nc2c(C#CC(C)(C)O)ncc(OC[C@H]3CCCNC3)c21 + COc1cccc2cc(-c3nc([C@H]4CC[C@H](C(=O)O)CC4)n4ncnc(N)c34)[nH]c12 [OSI-027] (partner 0.5 µM)
How it was run: as §1

[2] = compound: CCn1c(-c2nonc2N)nc2c(C#CC(C)(C)O)ncc(OC[C@H]3CCCNC3)c21 + O=C(c1cc(Cc2n[nH]c(=O)c3ccccc23)ccc1F)N1CCN(C(=O)C2CC2)CC1 [Olaparib] (partner 8 µM)
How it was run: as §1

| Cell Line | relative viability (BAM7 + Foretinib; first compound 0.5 µM) | relative viability (BAM7 + Foretinib; first compound 5 µM) | relative viability (BAM7 + Foretinib; first compound 15.81 µM) | relative viability (BAM7 + Foretinib; first compound 50 µM) | relative viability (BAM7 + Lapatinib; first compound 0.5 µM) | relative viability (BAM7 + Lapatinib; first compound 5 µM) | relative viability (BAM7 + Lapatinib; first compound 15.81 µM) | relative viability (BAM7 + Lapatinib; first compound 50 µM) | relative viability ([1]; first compound 0.01 µM) | relative viability ([1]; first compound 0.03162 µM) | relative viability ([1]; first compound 0.1 µM) | relative viability ([1]; first compound 0.3162 µM) | relative viability ([1]; first compound 1 µM) | relative viability ([2]; first compound 0.01 µM) | relative viability ([2]; first compound 0.03162 µM) | relative viability ([2]; first compound 0.1 µM) | relative viability ([2]; first compound 0.3162 µM) | relative viability ([2]; first compound 1 µM) |
| --- | --- | --- | --- | --- | --- | --- | --- | --- | --- | --- | --- | --- | --- | --- | --- | --- | --- | --- |
| 201T | 0.789 | 0.948 | 0.832 | 0.823 | 1.05 | 1.04 | 0.973 | 1.02 | 0.675 | 0.644 | 0.625 | 0.719 | 0.754 | 0.855 | 0.861 | 0.838 | 0.801 | 0.827 |
| A549 | 1 | 1.1 | 0.93 | 0.989 | 1.08 | 1.05 | 1.03 | 0.924 | – | – | – | – | – | 0.407 | 0.351 | 0.318 | 0.301 | 0.257 |
| A-427 | 1.11 | 1.07 | 1.05 | 1.05 | 1.01 | 1.09 | 1.03 | 1.09 | 0.413 | 0.578 | 0.367 | 0.509 | 0.443 | 0.737 | 0.203 | 0.75 | 0.683 | 0.709 |
| ABC-1 | 1.05 | 1.17 | 0.95 | 1.19 | – | 1.24 | 1.16 | 1.36 | 0.394 | 0.36 | 0.394 | 0.31 | 0.304 | 0.684 | – | 0.977 | 1.05 | 1.03 |
| BEN | 0.694 | 0.639 | 0.634 | 0.618 | 0.754 | 0.72 | 0.676 | 0.836 | 0.311 | 0.302 | 0.224 | 0.275 | 0.299 | 1.14 | 1.19 | 1.15 | 0.919 | 0.966 |
| CAL-12T | 1.22 | 1.18 | 1.09 | 1.23 | 0.677 | 0.581 | 0.599 | 0.692 | 0.424 | 0.541 | 0.685 | 0.453 | 0.38 | 0.599 | 0.708 | 0.72 | 0.699 | 0.729 |
| COR-L23 | 0.891 | 1.01 | 0.897 | 0.981 | 1.28 | 1.14 | 0.914 | 1.02 | 0.839 | 0.698 | 0.687 | 0.478 | 0.384 | 0.329 | 0.429 | 0.357 | 0.379 | 0.376 |
| COR-L 105 | 0.957 | 1.24 | 0.937 | 0.979 | 0.357 | 0.355 | 0.382 | 0.44 | 0.664 | 0.802 | 0.59 | 0.52 | 0.499 | 0.658 | 0.759 | 0.689 | 0.696 | 1.19 |
| Calu-6 | 0.939 | 0.951 | 0.891 | 0.893 | 1.06 | 1.09 | 1.05 | 1.07 | – | – | – | – | – | 0.546 | 0.589 | 0.605 | 0.558 | 0.644 |
| ChaGo-K-1 | 0.806 | 0.928 | 0.724 | 0.983 | – | – | – | – | 0.556 | 0.561 | 0.504 | 0.518 | 0.6 | 0.397 | 0.443 | 0.408 | 0.408 | 0.398 |
| EBC-1 | 0.0974 | 0.103 | 0.0984 | 0.102 | 0.203 | 0.248 | 0.233 | 0.251 | – | – | – | – | – | 0.652 | 0.706 | 0.676 | 0.516 | 0.557 |
| EKVX | 0.792 | 0.79 | 0.541 | 0.987 | 0.199 | 0.201 | 0.192 | 0.507 | 0.685 | 0.671 | 0.678 | 0.686 | 0.752 | 0.89 | 0.986 | 0.926 | 0.768 | 0.757 |
| EMC-BAC-2 | 0.974 | 1.04 | 0.985 | 1.05 | 0.943 | 0.936 | 0.962 | 0.968 | 0.341 | 0.379 | 0.354 | 0.369 | 0.336 | 0.457 | 0.501 | 0.503 | 0.454 | 0.468 |
| EPLC-272H | 0.653 | – | 0.632 | 0.811 | 0.879 | 0.924 | 0.94 | 0.963 | 0.303 | 0.261 | 0.262 | 0.314 | 0.264 | 0.833 | 0.853 | 0.641 | 0.56 | 0.507 |
| H3255 | 0.774 | 0.868 | 0.806 | 0.858 | 0.251 | 0.242 | 0.247 | 0.278 | 0.683 | 0.658 | 0.607 | 0.539 | 0.528 | 0.571 | 0.59 | 0.638 | 0.483 | 0.564 |
| HARA | 0.913 | 0.833 | 0.779 | 1.02 | 0.68 | 0.777 | 0.682 | 0.793 | 0.5 | 0.575 | 0.368 | 0.472 | 0.459 | 0.909 | 0.903 | 0.808 | 0.687 | 0.763 |
| HCC-15 | 1 | 1.04 | 0.982 | 1 | 0.912 | 0.896 | 0.908 | 0.865 | 0.576 | 0.602 | 0.626 | 0.575 | 0.595 | 0.691 | 0.735 | 0.803 | 0.672 | 0.628 |
| HCC-44 | – | – | – | – | 1.09 | 1.02 | 1 | 0.983 | – | – | 0.484 | 0.372 | 0.499 | 0.995 | 1.02 | 0.977 | 0.955 | 0.994 |
| HCC-78 | 0.566 | 0.516 | 0.564 | 0.58 | 0.74 | 0.69 | 0.98 | 1.11 | 0.405 | 0.386 | 0.325 | 0.331 | 0.341 | 0.739 | 0.732 | 0.827 | 0.794 | 0.564 |
